Experimental data published in patent publication US6416775B1, “Dry spreadable carrier for pesticides” (priority 1996, dated 2002).

Assay: Volatile materials in ventilating oven
Type: physicochemical
Conditions: after 2 hours at 141° F. (=60.5° C.) in a ventilating oven
Description: The moisture content of raw material Celite 500 is 3.7 weight percent. So, the weight of raw material Celite 500 is close to the dry weight of Celite 500. According to the product specifications of Supragil MNS/90, Soprophor S/40-P, and Supragil WP, the moisture contents of these components are no higher than 2 weight percent. Also, samples of chlorpyrifos technical were tested for volatile materials in a ventilating oven. The weight loss after 2 hours at 141° F. (=60.5° C.) was only 0.6 weight percent. […] Therefore, the dry spreadable granular product as manufactured above contains approximately 2.0 weight percent chlorpyrifos.

CCOP(=S)(OCC)Oc1nc(Cl)c(Cl)cc1Cl [Chlorpyrifos]
weight loss: 0.6 weight percent
